Experimental data reported in patent US11077167B2, “Agent for promoting skeletal muscle injury repair” (Osaka University, priority 2017, dated 2021).

What was measured:
[1] = test system: muscle injury model rats (incised masseter muscles on both sides); assay: Behavioral physiological experiment (feeding efficiency), Example 2; assay type: in vivo, Jcl:SD rats
Procedure: (§1) Incisions were made in masseter muscles on both sides in Jcl:SD rats (10 weeks old) under anesthesia in the same manner as in Example 1. Immediately after muscle incision, 1 mL each of the SV peptide (20 ng/mL) or 1 mL each of PBS was intramuscularly administered into several sites surrounding the cut surfaces. The incision on each side was made along a straight line connecting the lateral angle of the eye and the mandibular angle, extending in depth from the fascia on the skin side to the lateral periosteum on the mandibular ramus. The cut surfaces were subjected to electrocoagulation with an electric scalpel for the arrest of bleeding (see FIG. 1). […]
In the same manner as in Example 1, each rat was housed in a transparent plastic cage of 30 cm in length×30 cm in width×30 cm in height at postoperative weeks 1, 2, 4, 6, and 8, and the behavior was recorded on video cameras during the active time of rats (18:00 to 22:00). Food intake and mastication time were measured, and the food intake per unit of mastication time (feeding efficiency) was calculated.

[2] = test system: muscle injury model rats (incised masseter muscles on both sides); assay: Histological staining of masseter muscles at postoperative week 1, Example 1; assay type: in vivo, Jcl:SD rats; settings: P<0.05, t-test
Procedure: (§2) Incisions were made in masseter muscles on both sides in Jcl:SD rats (10 weeks old). Immediately after muscle incision, 1 mL each of the SV peptide (20 ng/mL) was intramuscularly administered into several sites surrounding the cut surfaces. The incision on each side was made along a straight line connecting the lateral angle of the eye and the mandibular angle, extending in depth from the fascia on the skin side to the lateral periosteum on the mandibular ramus. The cut surfaces were subjected to electrocoagulation with an electric scalpel for the arrest of bleeding (see FIG. 1).
This experiment was performed on rats subjected to incision of masseter muscles on both sides and subsequent administration of the SV peptide into the incised left masseter muscle without administration into the incised right masseter muscle (control). Each rat was euthanized at postoperative week 1, and the masseter muscles on both sides were excised. Histological sections were prepared by the usual method and subjected to various types of staining. The number of immature muscle fibers with central nuclei, which were muscle fibers involved in muscle repair, and the number of blood vessels were counted on HE-staining specimens. The masseter muscle was divided into upper and lower halves in the coronal plane, and 2 slices each of the upper and lower halves were used for counting. Counting was performed in 5 fields of view in each slice. The area of granulation tissue formed on the cut surfaces was measured on sirius red-staining specimens (type I and type III collagens were stained) using an image-analysis software. The sections were immunostained for myogenin, a marker for myotube cells, and the number of myogenin-positive cells was counted using an image-analysis software.

[3] = test system: muscle injury model rats (incised masseter muscles on both sides); assay: Behavioral physiological experiment (feeding behavior, body weight), Example 1; assay type: in vivo, Jcl:SD rats; settings: 1 mL intramuscular
Procedure: as §2
Feeding behavior and body weight of each rat was monitored preoperatively and 1 and 2 weeks postoperatively. More specifically, each rat was housed in a transparent plastic cage of 30 cm in length×30 cm in width×30 cm in height, and the behavior was recorded on video cameras during the active time of rats (18:00 to 22:00). Food intake and mastication time were measured, and the food intake per unit of mastication time (feeding efficiency) was calculated. This experiment was performed on a muscle injury model subjected to administration of the SV peptide into the incised masseter muscles on both sides (SV group) and on a muscle injury model subjected to administration of PBS into the incised masseter muscles on both sides (PBS group).

[4] = test system: Human skeletal muscle myoblasts (HSMMs); assay: Myogenin expression by immunofluorescence staining; assay type: cell-based; settings: SV peptide 20 ng/mL, HS group = 2% horse serum positive control
Source text: Human skeletal muscle myoblasts (HSMMs) were purchased from Lonza and used. The medium used for HSMM culture was the supplier's recommended medium (Skeletal Muscle Growth Media-2 supplemented with SingleQuots Kit).
Myogenin is known to be expressed when myoblasts differentiate into myotube cells. In this experiment, myogenin expression was used as an index to examine the effect of the SV peptide on the differentiation of human skeletal muscle myoblasts.
Human skeletal muscle myoblasts were cultured in a medium containing the SV peptide (20 ng/mL, SV group), the random SV (20 ng/mL, random SV group), or PBS (PBS group) for 48 or 72 hours. For a positive control, human skeletal muscle myoblasts were cultured in an F-12/DMEM medium containing 2% horse serum, which is known to facilitate myoblast differentiation into myotube cells (Moira A. Lawson et al.: Cells Tissues Organs 2000; 167: 130-137) (HS group). After 48- or 72-hour culture, the cells were immunostained with an anti-human myogenin antibody by the usual method and observed with a fluorescence microscope.

[5] = test system: muscle injury model rats (incised masseter muscles on both sides); assay: CT image analysis at postoperative week 8; assay type: in vivo, Jcl:SD rats
Procedure: as §1
Images were taken at postoperative week 8 using a micro CT for laboratory animals (Rigaku, tube voltage: 90 kV, tube current: 160 μA, voxel size: 118 μm). […] On the image at the level of the occlusal plane including the masseter muscle incision site, the muscle cross-sectional area (CSA), the mean CT value, and the % CSA (the percentage of the area having a muscle CT value in the area of interest) were measured and compared.

[6] = test system: muscle injury model rats (incised masseter muscles on both sides); assay: Electrophysiological experiment (masseter EMG), Example 2; assay type: in vivo, Jcl:SD rats
Procedure: as §1
In the same manner as in Example 1, bipolar needle electrodes were retained in the masseter muscles on both sides, and myogenic potential signals received through connectors fixed to both sides of the parietal bone were monitored. EMG data were recorded at postoperative weeks 1, 2, 4, 6, and 8.
The integral of bursts in the left (administration side) masseter muscle in the SV group or the PBS group was calculated as a measure of muscle activity and represented in FIG. 9 as a relative value compared to the 1-week postoperative value, which was assumed as 1. […]

Substance: SVVYGLR [SV peptide]
- feeding efficiency (food intake per unit of mastication time) ([1]; postoperative week 8, SV group vs PBS group): significantly higher value than that in the PBS group
- feeding efficiency (food intake per unit of mastication time) ([1]; time course postoperative weeks 1, 2, 4, 6, 8, relative to week 1 value = 1): time-dependent improvement in feeding efficiency
- number of muscle fibers with central nuclei ([2]; HE staining, SV peptide side vs control side): significantly larger on the SV peptide side than that on the control side
- number of blood vessels per field of view ([2]; HE staining, SV peptide side vs non-administration control side): significantly larger on the SV peptide side than that on the control side
- number of myogenin-positive nuclei per field of view ([2]; myogenin immunostaining, SV peptide side vs control side): significantly larger on the SV peptide side than that on the control side
- area of granulation tissue formed on cut surfaces ([2]; sirius red staining, SV peptide side vs control side): significantly smaller on the SV peptide side than that on the control side
- feeding efficiency (food intake per unit of mastication time) ([3]; postoperative week 1, relative to preoperative value = 1, SV peptide 20 ng/mL): reduced
- feeding efficiency (food intake per unit of mastication time) ([3]; postoperative week 2, relative to preoperative value = 1, SV peptide 20 ng/mL): recovered to almost the preoperative level
- percentage of myogenin-positive cells ([4]; 48-hour culture): significantly higher than that in the PBS group or the random SV group, but significantly lower than that in the HS group
- percentage of myogenin-positive cells ([4]; 72-hour culture): significantly higher than that in the PBS group or the random SV group, and comparable to that in the HS group
- muscle cross-sectional area (CSA) ([5]; CT image at occlusal plane level, SV group vs PBS group): significantly greater CSA in the area including the muscle incision site than that in the corresponding area in the PBS group
- % CSA (percentage of the area having a muscle CT value in the area of interest) ([5]; SV side vs control side within SV group): significantly higher % CSA on the left side with SV administration (SV side) than that on the right side without administration (control side)
- chewing side preference ([6]; postoperative weeks 1 and 8, SV peptide into left masseter, right incision only): increase in left-side chewing preference over time postoperatively
- integral of bursts in the left (administration side) masseter muscle ([6]; weeks 4, 6, and 8, relative to 1-week postoperative value = 1, SV group vs PBS group): significantly greater values than those in the PBS group
